Source: patent publication US9789082B2, “Somatostatin receptor subtype 4 (SSTR4) agonists” (Centrexion Therapeutics Corporation, priority 2013, dated 2017)
Like-named read-outs stand apart in the source and are kept apart here.

Experiments:
[1] = molecular target: human Somatostatin 4 receptor (SSTR4) (Homo sapiens (Human), UniProt P31391); experiment: cAMP assay with human somatostatin 4 receptor (hSSTR4 expressing H4 cells); type: cell-based
human SSTR4 = human SSTR4 (Homo sapiens (Human), UniProt P31391); experiment: Radioligand binding assay, CHO cell membranes expressing recombinant human SSTR4
Chain of human SSTR4 (P31391 whole entry): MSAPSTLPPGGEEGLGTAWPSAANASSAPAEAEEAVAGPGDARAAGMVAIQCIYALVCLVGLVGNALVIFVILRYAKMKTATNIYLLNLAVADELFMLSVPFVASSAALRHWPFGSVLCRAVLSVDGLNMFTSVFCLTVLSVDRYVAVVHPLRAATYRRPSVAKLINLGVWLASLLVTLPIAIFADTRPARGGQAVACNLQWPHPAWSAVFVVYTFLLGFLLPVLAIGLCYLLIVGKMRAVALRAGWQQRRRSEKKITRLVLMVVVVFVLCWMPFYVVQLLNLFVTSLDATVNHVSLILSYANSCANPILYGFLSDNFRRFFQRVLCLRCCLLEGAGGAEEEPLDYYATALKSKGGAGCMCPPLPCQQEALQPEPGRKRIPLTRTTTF
Excerpt: (§1) Radioligand Binding Assays
(§2) Method Description for Binding Assays with Human Somatostatin Receptors by Use of CHO Cell Membranes Expressing Recombinant Human SSTR1 or Human SSTR2 or Human SSTR3 or Human SSTR4 or Human SSTR5
(§3) Receptor binding assays refer to a technique in which labeled receptor ligands are used to detect binding to a receptor. In competition experiments test compounds, which are not labeled, compete with the binding side of a labeled ligand. The displacement of the labeled ligand by the test compound leads to a decreased signal.
(§4) For the binding experiments 200 μL of membrane homogenate from one of the following protein amounts is used: hSSTR1 (40 μg/well); hSSTR2 (25 μg/well); hSSTR3 (1.5 μg/well); hSSTR4 (0.5 μg/well); hSSTR5 (25 μg/well). […] The incubation is terminated by filtration with ice cold NaCl 0.9% through polyethyleneimine treated (0.3%) GF/B glass fiber filters using a cell harvester. The protein-bound radioactivity is measured in a suitable reader. The non-specific binding is defined as radioactivity bound in the presence of 1 μM Somatostatin-14 during the incubation period.
(§5) The analysis of the concentration-binding curves is performed by computer-assisted nonlinear least square curve fitting method using the model of one receptor binding site.
(§6) Selectivity data was obtained with the aid of the above described radioligand binding assays.

human SSTR1 = human SSTR1 (Homo sapiens (Human), UniProt P30872); experiment: Radioligand binding assay, CHO cell membranes expressing recombinant human SSTR1
Chain of human SSTR1 (P30872 whole entry): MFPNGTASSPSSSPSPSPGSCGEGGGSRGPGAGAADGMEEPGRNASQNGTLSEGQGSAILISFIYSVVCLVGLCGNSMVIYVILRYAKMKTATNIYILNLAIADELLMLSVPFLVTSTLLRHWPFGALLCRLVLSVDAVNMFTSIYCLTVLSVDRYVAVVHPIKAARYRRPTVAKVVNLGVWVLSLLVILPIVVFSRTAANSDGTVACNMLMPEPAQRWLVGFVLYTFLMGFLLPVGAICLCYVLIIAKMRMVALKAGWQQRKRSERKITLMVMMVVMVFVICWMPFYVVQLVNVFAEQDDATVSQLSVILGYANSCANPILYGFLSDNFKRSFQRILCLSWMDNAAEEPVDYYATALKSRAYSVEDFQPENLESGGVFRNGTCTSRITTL
Excerpt: as §1, §2, §3, §4, §5, §6

human SSTR2 = human SSTR2 (Homo sapiens (Human), UniProt P30874); experiment: Radioligand binding assay, CHO cell membranes expressing recombinant human SSTR2
Chain of human SSTR2 (P30874 whole entry): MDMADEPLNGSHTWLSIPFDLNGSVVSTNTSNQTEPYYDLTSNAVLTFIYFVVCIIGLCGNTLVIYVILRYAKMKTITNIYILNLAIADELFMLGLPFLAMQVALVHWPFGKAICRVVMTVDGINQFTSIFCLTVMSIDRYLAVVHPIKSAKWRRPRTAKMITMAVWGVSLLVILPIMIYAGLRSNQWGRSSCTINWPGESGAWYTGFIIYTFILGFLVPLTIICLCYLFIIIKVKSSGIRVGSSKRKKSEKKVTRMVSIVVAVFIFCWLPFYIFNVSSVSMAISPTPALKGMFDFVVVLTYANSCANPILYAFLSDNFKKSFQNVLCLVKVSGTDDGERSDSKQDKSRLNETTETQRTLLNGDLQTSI
Excerpt: as §1, §2, §3, §4, §5, §6

human SSTR3 = human SSTR3 (Homo sapiens (Human), UniProt P32745); experiment: Radioligand binding assay, CHO cell membranes expressing recombinant human SSTR3
Chain of human SSTR3 (P32745 whole entry): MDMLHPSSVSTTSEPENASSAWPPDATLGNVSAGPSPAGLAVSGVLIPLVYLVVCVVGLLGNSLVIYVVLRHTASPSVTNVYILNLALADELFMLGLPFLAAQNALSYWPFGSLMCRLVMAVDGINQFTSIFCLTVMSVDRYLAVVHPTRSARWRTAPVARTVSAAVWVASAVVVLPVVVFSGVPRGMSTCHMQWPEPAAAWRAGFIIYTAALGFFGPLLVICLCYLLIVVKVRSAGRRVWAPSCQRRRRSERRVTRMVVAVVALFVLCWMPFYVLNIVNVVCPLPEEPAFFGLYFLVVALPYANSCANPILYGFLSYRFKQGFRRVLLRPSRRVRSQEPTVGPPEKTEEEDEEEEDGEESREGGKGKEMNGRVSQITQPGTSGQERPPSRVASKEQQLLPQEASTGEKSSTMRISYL
Excerpt: as §1, §2, §3, §4, §5, §6

human SSTR5 = human SSTR5 (Homo sapiens (Human), UniProt P35346); experiment: Radioligand binding assay, CHO cell membranes expressing recombinant human SSTR5
Chain of human SSTR5 (P35346 whole entry): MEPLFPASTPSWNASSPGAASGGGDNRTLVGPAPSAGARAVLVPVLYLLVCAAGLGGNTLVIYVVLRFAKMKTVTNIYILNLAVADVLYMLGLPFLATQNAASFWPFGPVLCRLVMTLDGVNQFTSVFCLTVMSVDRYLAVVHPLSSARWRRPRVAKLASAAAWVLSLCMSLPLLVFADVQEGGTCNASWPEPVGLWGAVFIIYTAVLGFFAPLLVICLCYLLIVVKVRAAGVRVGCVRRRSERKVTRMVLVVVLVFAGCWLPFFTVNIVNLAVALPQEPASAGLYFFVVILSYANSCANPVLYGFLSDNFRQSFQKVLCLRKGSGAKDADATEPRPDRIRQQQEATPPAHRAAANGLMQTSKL
Excerpt: as §1, §2, §3, §4, §5, §6

[2] = Metabolic stability in pooled human liver microsomes (half-life); type: in vitro ADME; details: pooled human liver microsomes, pH 7.6, 37° C., 1 μM test compound, read-out: Half-life t1/2
Method: The metabolic stability of the compounds according to the invention may be investigated as follows:
The metabolic degradation of the test compound is assayed at 37° C. with pooled human liver microsomes. The final incubation volume of 100 μl per time point contains TRIS buffer pH 7.6 at room temperature (0.1 M), magnesium chloride (5 mM), microsomal protein (1 mg/mL) and the test compound at a final concentration of 1 μM. Following a short preincubation period at 37° C., the reactions are initiated by addition of beta-nicotinamide adenine dinucleotide phosphate, reduced form (NADPH, 1 mM), and terminated by transferring an aliquot into solvent after different time points. After centrifugation (10000 g, 5 min), an aliquot of the supernatant is assayed by LC-MS/MS for the amount of parent compound. The half-life is determined by the slope of the semi-logarithmic plot of the concentration-time profile.

[3] = cAMP assay, read-out: SSTR4 agonism EC50

Chain of human Somatostatin 4 receptor (SSTR4) (P31391 whole entry): as the sequence (P31391 whole entry) above

SMILES | EC50 [1, 3] [nM] | Ki (human SSTR4) [nM] | Ki (human SSTR1) [nM] | Ki (human SSTR2) [nM] | Ki (human SSTR3) [nM] | Ki (human SSTR5) [nM] | half-life at 1 μM [2] [h] | EC50 ([1]; SSTR4 agonism EC50, cAMP assay) [nM]
CC(C)(NC(=O)[C@H]1[C@@H]2CNC[C@@H]21)c1ccnc2ccccc12.Cl [Example 21] | 0.7 | 10.8 | > 8910 | > 9590 | > 8580 | > 9850 | > 2.17 | 
CC(C)(NC(=O)[C@H]1[C@@H]2CNC[C@@H]21)c1nccc2ccccc12.Cl [Example 24] |  | 2.9 | 2820 | > 9610 | > 8650 | > 9860 | > 2.17 | 0.5
Cc1cccnc1C(C)(C)NC(=O)[C@H]1[C@@H]2CNC[C@@H]21.Cl.Cl [Example 25] |  | 114 | > 8960 | > 9610 | > 8640 | > 9860 | > 2.17 | 14.8
Cc1ccccc1OCC(C)(C)NC(=O)[C@H]1[C@@H]2CNC[C@@H]21.Cl [Example 40] | 5 | 37.1 | > 9760 | > 9600 | > 8630 | > 9850 | > 2.17 | 
Cc1cccnc1OCC(C)(C)NC(=O)[C@H]1[C@@H]2CNC[C@@H]21 [Example 47] | 3.7 | 39.9 | > 9150 | > 9600 | > 8620 | > 9850 | > 2.17 | 
Cn1nc(C(C)(C)NC(=O)[C@H]2[C@@H]3CNC[C@@H]32)c2ccccc21 [Example 49] | 0.4 | 4.5 | 4540 | > 9600 | > 8620 | > 9860 | > 2.17 | 
CC(C)(COc1nccc2ccccc12)NC(=O)[C@H]1[C@@H]2CNC[C@@H]21 [Example 56] | 5.5 | 100 | 3460 | > 9610 | > 8630 | > 9850 | > 2.17 | 
CC(C)(COc1cnccc1C(F)(F)F)NC(=O)[C@H]1[C@@H]2CNC[C@@H]21 [Example 63] |  | 68.9 | > 7510 | > 7880 | > 7070 | > 8080 | > 2.17 | 4.1
Cc1cc2cccnc2c(C(C)(C)NC(=O)[C@H]2[C@@H]3CNC[C@@H]32)n1 [Example 78] | 3.2 | 97.2 | 6640 | > 9630 | > 8710 | > 9860 | > 2.17 | 
Cc1ncc(C(C)(C)NC(=O)[C@H]2[C@@H]3CNC[C@@H]32)c2ccccc12 [Example 80] | 0.3 | 1.2 | 508 | > 9630 | > 8710 | > 9860 | > 2.17 | 
CC(C)(NC(=O)[C@H]1[C@@H]2CNC[C@@H]21)c1noc2c(F)cccc12 [Example 101] | 1.2 | 46.2 | > 9090 | > 9600 | > 8600 | > 9850 | > 2.17 | 
Cc1cccn2c(C(C)(C)NC(=O)[C@H]3[C@@H]4CNC[C@@H]43)ncc12.Cl [Example 126] |  | 3 | 6630 | > 9630 | > 8710 | > 9860 | > 2.17 | 0.4
Cc1cccn2c(C(C)(C)NC(=O)[C@H]3[C@@H]4CNC[C@@H]43)nc(C3CC3)c12 [Example 128] | 0.4 | 7.6 | 1100 | > 9630 | 6180 | > 9860 | > 2.17 | 
Cc1nc(C(C)(C)NC(=O)[C@H]2[C@@H]3CNC[C@@H]32)c2ccccc2n1 [Example 138] | 4.3 | 70.3 | 7360 | > 9630 | > 8710 | > 9860 | > 2.17 | 
Cc1nc(C(C)(C)NC(=O)[C@H]2[C@@H]3CNC[C@@H]32)c2cccc(C)c2n1 [Example 148] |  | 32.3 | 6670 | > 9630 | > 8690 | > 9770 | > 2.17 | 1.1
